Data taken from ChEMBL document CHEMBL1201862, “PubChem BioAssay data set” (2004).
Active and inactive are the calls of the source.

Assays:
[1] = target: Heat shock protein HSP 90-alpha (Homo sapiens, UniProt P07900); format: functional, organism-based
Streptokinase A = target: T1, Streptokinase A (Streptococcus pyogenes serotype M1, UniProt P10520); test: viability-normalized secreted streptokinase activity reduction – plasminogen activation absorbance, OD405, dose response (AID 1914); format: functional, Streptococcus pyogenes M1 GAS;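 note: secreted streptokinase activity via plasminogen activation per viability signal from cell pellet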
T1 sequence (P10520 whole entry): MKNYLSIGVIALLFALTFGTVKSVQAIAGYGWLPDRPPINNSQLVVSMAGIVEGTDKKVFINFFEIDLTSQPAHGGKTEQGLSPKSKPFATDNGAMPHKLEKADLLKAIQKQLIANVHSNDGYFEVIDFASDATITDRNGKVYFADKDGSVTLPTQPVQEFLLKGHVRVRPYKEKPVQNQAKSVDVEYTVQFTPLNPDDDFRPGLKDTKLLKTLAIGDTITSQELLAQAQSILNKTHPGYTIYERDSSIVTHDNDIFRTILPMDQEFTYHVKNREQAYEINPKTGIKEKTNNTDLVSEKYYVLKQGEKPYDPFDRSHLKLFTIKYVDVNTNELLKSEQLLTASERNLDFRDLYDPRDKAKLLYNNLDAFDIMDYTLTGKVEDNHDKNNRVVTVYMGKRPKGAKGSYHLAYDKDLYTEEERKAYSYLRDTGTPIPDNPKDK

[2] = target: Runt-related transcription factor 1/Core-binding factor subunit beta (Homo sapiens, UniProt Q01196+Q13951); test: Runt domain/CBFb-SMMHC interaction disruptors – biochemical, TR-FRET (AID 1438); format: protein assay
[3] = target: Eukaryotic translation initiation factor 4E (Mus musculus, UniProt P63073); test: blockers of eIF4G binding by eIF4E – biochemical, TR-FRET, dose response (AID 855); format: functional;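 note: potency for disrupting eIF4E binding to eIF4GI seen as loss of FRET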
Large T antigen = Large T antigen (Simian virus 40, UniProt P03070); format: functional, Betapolyomavirus macacae;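 note: Confirmatory-stage PubChem screen for compounds that inhibit SV40 T antigen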
[4] = target: T2, Zinc finger protein mex-5 (Caenorhabditis elegans, UniProt Q9XUB2); test: potency of MEX-5 RNA-binding blockers – biochemical, C. elegans, fluorescence polarization, dose response (AID 1960)
T2 sequence (Q9XUB2 whole entry): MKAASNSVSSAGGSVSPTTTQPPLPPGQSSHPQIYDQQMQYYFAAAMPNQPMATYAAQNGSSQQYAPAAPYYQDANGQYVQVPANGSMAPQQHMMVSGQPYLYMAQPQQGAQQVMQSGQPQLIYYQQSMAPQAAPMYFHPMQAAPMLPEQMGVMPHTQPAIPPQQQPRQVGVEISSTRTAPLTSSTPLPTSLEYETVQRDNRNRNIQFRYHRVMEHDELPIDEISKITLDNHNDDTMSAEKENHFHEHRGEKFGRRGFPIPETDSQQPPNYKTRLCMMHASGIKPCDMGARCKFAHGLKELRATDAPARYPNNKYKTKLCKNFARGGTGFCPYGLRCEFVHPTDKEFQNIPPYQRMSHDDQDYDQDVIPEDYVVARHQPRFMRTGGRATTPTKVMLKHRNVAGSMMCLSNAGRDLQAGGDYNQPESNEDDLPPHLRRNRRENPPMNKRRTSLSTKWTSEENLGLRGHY

Bcl-2-related protein A1 = target: T3, Bcl-2-related protein A1 (Mus musculus, UniProt Q07440); format: functional;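 note: confirmatory dose–response counterscreen on Bfl-1, used to check hits from a UBC13 polyubiquitin inhibitor campaign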
T3 sequence (Q07440 whole entry): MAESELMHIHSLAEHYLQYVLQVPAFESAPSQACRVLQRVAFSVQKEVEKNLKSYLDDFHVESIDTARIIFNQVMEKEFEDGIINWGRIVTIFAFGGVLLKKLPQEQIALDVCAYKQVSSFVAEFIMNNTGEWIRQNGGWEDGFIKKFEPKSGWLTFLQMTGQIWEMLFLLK

[5] = target: T4, RNA-binding protein pos-1 (Caenorhabditis elegans, UniProt G5EF15); test: disruptors of C. elegans POS-1 RNA interaction – biochemical, fluorescence polarization, dose response (AID 1964);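 note: purified POS-1 fused to maltose binding protein made in E. coli; potency of compounds blocking POS-1 binding to fluorescent RNA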
T4 sequence (G5EF15 whole entry): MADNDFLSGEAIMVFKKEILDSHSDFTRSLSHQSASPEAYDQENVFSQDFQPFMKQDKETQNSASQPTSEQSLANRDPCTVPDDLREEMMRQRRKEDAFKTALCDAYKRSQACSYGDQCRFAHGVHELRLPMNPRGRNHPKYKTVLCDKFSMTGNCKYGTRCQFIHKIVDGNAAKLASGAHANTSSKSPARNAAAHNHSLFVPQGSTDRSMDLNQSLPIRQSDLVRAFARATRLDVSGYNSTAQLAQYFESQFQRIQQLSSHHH

[6] = target: Heat shock cognate 71 kDa protein (Homo sapiens, UniProt P11142); test: In Vitro Hsc70 Dose Response Fluorescence Polarization Assay. [Related pubchem assays: 1072 ]
[7] = target: Vascular endothelial growth factor receptor 1 (Homo sapiens, UniProt P17948); format: functional;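 note: measured within a kinome-wide profiling panel, FLT1 as the panel member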
[8] = target: Inhibitor of nuclear factor kappa-B kinase subunit epsilon (Homo sapiens, UniProt Q14164); test: Navigating the Kinome. Panel member name: IKBKE; format: functional
[9] = target: Fibroblast growth factor receptor 1 (Homo sapiens, UniProt P11362); format: functional
LIM domain kinase 1 = LIM domain kinase 1 (Homo sapiens, UniProt P53667); test: Navigating the Kinome. Panel member name: LIMK1; format: functional
[10] = target: Macrophage-stimulating protein receptor (Homo sapiens, UniProt Q04912); test: Navigating the Kinome. Panel member name: MST1R; format: functional
[11] = target: Calcium/calmodulin-dependent protein kinase type II subunit alpha (Homo sapiens, UniProt Q9UQM7); test: Navigating the Kinome. Panel member name: CAMK2A; format: functional
[12] = target: Serine/threonine-protein kinase SIK2 (Homo sapiens, UniProt Q9H0K1); test: Navigating the Kinome. Panel member name: SIK2; format: functional
[13] = target: Tyrosine-protein kinase BTK (Homo sapiens, UniProt Q06187); format: functional
[14] = target: Casein kinase II subunit alpha (Homo sapiens, UniProt P68400); format: functional
[15] = target: Rho-associated protein kinase 2 (Homo sapiens, UniProt O75116); format: functional
[16] = target: Interleukin-1 receptor-associated kinase 4 (Homo sapiens, UniProt Q9NWZ3); format: functional
[17] = target: MAP kinase-activated protein kinase 2 (Homo sapiens, UniProt P49137); format: functional;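 note: measured as one member of a kinome-wide kinase panel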
[18] = target: Cyclin-dependent kinase 2 (Homo sapiens, UniProt P24941); format: functional;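 note: CDK2 measured as one member of a broad kinome profiling panel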
[19] = target: Casein kinase I isoform gamma-1 (Homo sapiens, UniProt Q9HCP0); format: functional;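 note: measured as the CSNK1G1 member of a kinome profiling panel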
[20] = target: Protein kinase C iota type (Homo sapiens, UniProt P41743); format: functional;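 note: measured within a kinome-wide kinase panel, PRKCI as panel member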
[21] = target: Inhibitor of nuclear factor kappa-B kinase subunit beta (Homo sapiens, UniProt O14920); format: functional
[22] = target: Tyrosine-protein kinase receptor UFO (Homo sapiens, UniProt P30530); format: functional

Runt-related transcription factor 1/Core-binding factor subunit beta, sequence (Q01196 whole entry, the tested form may be a part): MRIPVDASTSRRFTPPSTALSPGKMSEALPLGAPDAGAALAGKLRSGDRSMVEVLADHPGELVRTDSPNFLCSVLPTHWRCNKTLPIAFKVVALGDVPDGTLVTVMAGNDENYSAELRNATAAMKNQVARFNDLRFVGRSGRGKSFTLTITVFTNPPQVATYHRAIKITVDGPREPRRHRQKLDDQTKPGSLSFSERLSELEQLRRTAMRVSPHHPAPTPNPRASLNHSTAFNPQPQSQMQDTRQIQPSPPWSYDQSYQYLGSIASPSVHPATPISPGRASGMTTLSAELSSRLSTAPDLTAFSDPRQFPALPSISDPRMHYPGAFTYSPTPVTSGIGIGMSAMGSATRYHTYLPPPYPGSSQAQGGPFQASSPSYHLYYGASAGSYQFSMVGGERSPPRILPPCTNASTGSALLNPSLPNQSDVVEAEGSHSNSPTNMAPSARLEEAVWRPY
Runt-related transcription factor 1/Core-binding factor subunit beta, sequence (Q13951 whole entry, the tested form may be a part): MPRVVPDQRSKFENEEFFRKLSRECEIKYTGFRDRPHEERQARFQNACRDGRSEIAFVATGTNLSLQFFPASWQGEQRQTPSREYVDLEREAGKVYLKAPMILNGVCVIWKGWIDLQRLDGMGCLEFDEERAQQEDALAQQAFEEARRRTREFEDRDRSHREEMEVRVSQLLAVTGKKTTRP
Inhibitor of nuclear factor kappa-B kinase subunit epsilon, sequence (Q14164 whole entry): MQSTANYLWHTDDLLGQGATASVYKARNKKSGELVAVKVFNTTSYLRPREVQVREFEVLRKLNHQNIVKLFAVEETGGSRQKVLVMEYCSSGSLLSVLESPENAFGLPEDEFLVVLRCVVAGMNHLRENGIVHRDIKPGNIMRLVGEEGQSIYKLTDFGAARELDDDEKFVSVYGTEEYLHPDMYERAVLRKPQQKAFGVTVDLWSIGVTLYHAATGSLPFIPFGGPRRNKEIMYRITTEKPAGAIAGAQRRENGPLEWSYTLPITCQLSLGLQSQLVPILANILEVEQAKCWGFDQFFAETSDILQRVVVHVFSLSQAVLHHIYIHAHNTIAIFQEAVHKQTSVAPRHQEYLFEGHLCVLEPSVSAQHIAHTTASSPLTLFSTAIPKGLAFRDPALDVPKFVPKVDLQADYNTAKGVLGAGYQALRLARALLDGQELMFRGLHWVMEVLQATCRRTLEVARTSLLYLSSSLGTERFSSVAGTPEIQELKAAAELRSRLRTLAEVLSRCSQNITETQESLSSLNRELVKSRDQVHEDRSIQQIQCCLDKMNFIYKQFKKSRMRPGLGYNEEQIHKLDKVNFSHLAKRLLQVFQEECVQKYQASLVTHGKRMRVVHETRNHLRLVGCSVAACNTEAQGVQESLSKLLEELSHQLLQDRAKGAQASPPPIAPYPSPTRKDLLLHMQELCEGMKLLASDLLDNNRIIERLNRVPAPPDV
Rho-associated protein kinase 2, sequence (O75116 whole entry): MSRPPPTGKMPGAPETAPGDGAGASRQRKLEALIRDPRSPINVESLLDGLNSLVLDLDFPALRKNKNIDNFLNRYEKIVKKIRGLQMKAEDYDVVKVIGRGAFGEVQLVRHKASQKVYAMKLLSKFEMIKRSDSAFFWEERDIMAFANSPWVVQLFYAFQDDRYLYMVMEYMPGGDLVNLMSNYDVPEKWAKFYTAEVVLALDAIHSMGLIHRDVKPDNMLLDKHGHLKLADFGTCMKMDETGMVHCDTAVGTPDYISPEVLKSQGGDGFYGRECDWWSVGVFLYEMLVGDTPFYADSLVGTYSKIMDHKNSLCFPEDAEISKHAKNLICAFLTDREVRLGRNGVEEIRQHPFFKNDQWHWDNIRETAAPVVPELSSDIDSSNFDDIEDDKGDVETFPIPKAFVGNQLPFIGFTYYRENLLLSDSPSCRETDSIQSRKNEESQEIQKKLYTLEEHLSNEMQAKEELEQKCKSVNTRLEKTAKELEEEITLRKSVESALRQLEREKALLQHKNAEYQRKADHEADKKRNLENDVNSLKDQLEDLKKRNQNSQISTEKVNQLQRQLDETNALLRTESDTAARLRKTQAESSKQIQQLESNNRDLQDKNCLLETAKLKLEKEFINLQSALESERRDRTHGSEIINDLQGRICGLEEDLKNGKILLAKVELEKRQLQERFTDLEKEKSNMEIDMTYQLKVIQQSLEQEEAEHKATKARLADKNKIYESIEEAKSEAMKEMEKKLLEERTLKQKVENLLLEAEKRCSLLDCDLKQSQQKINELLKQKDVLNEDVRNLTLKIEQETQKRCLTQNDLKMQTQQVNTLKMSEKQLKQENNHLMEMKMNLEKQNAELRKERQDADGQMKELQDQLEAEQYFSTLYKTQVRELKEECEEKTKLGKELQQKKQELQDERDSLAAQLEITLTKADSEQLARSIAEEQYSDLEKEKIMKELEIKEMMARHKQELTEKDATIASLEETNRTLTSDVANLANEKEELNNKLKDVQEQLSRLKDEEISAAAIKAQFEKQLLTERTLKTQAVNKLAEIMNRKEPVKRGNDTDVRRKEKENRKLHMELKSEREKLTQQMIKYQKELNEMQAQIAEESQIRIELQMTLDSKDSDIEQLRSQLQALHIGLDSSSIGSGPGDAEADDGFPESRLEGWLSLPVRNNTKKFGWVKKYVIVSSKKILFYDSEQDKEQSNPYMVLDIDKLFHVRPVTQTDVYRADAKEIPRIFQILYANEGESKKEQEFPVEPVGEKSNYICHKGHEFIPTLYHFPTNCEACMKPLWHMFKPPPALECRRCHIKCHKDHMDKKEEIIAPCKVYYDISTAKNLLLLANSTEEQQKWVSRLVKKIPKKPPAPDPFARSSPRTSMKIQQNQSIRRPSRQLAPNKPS
Calcium/calmodulin-dependent protein kinase type II subunit alpha, sequence (Q9UQM7 whole entry): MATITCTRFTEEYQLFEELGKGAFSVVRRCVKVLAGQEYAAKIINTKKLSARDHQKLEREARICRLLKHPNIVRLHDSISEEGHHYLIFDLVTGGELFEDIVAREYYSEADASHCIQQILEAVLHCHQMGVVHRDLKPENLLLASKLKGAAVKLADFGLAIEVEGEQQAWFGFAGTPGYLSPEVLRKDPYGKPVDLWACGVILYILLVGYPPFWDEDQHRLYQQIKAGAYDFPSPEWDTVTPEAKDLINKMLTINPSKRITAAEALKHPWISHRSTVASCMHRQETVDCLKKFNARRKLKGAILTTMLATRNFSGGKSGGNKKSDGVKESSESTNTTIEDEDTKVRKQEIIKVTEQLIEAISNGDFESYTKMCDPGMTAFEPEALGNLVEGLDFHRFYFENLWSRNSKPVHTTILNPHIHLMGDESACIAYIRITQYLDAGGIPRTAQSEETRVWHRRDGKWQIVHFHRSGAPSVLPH
Tyrosine-protein kinase BTK, sequence (Q06187 whole entry): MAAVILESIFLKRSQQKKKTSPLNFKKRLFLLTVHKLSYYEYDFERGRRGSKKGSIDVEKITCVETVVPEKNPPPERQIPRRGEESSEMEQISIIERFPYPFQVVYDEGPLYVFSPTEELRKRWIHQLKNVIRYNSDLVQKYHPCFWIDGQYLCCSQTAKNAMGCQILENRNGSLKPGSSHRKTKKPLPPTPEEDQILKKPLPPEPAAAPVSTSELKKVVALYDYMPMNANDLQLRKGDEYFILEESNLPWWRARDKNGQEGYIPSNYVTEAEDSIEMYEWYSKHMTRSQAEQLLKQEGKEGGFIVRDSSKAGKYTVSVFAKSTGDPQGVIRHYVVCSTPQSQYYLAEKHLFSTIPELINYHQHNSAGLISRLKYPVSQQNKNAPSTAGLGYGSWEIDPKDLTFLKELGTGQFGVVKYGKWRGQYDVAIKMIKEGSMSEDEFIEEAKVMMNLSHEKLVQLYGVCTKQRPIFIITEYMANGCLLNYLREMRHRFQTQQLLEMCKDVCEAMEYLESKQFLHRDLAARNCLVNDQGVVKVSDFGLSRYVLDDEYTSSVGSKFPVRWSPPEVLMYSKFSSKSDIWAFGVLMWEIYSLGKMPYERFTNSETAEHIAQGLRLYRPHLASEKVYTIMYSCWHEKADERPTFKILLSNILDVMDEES
Inhibitor of nuclear factor kappa-B kinase subunit beta, sequence (O14920 whole entry): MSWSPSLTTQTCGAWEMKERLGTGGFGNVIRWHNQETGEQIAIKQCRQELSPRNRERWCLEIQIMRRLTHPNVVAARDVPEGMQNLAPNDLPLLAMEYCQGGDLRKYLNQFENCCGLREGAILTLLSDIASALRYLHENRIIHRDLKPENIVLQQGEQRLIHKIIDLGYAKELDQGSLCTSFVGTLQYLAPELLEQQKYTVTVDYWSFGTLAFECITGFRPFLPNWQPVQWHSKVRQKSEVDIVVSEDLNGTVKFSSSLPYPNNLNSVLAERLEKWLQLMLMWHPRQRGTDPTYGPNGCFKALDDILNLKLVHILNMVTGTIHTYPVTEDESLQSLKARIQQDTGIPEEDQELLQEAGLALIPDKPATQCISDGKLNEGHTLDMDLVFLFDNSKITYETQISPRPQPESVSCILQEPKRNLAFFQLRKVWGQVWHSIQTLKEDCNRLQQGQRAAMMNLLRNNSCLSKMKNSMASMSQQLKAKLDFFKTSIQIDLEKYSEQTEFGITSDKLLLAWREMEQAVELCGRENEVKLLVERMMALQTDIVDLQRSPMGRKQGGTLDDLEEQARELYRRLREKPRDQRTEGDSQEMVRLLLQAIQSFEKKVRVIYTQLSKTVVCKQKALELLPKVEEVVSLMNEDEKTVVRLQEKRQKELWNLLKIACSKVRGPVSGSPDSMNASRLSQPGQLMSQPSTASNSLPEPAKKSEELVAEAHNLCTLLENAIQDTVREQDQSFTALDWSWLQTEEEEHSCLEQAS
Eukaryotic translation initiation factor 4E, sequence (P63073 whole entry): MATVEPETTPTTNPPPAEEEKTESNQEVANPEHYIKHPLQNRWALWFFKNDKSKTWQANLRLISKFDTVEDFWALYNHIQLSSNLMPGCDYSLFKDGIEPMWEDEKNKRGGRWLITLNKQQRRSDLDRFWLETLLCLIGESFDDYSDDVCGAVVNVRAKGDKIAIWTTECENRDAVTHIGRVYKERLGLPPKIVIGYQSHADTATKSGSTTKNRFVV

O=C1/C(=C\c2cccc(O)c2O)SC(=S)N1Cc1ccccc1
AC50 [1]: 13.4 µM (active)

CC(C)(C)c1cc[n+](C2=C([N-]S(=O)(=O)c3cccs3)C(=O)c3ccccc3C2=O)cc1
EC50 (Streptokinase A): 3.8 µM (active)

COc1cccc2c1NC(C(=O)O)C1CC=CC21 (stereo unspecified)
IC50 [2]: 15.4 µM (active) | IC50 [3]: 12.8 µM (active) | IC50 (Large T antigen): 42.5 µM (active) | EC50 [4]: 8.25 µM (active) | IC50 (Bcl-2-related protein A1): 1.1 µM (active) | EC50 [5]: 19.5 µM (inconclusive) | IC50 [6]: 25.2 µM (active)

COc1c(-c2nc3ccccc3[nH]2)c(O)cc2oc(C)cc(=O)c12
Ki [7]: 2 µM (active) | Ki [8]: 2 µM (active) | Ki [9]: 501 nM (active) | Ki (LIM domain kinase 1): 31.6 nM (active) | Ki [10]: 1.58 µM (active) | Ki [11]: 1 µM (active)

Cc1ccc(F)c(NC(=O)Nc2ccc(-c3cccc4[nH]nc(N)c34)cc2)c1 [LINIFANIB]
Ki [12]: > 3.98 µM (inactive) | Ki [13]: > 6.31 µM (inactive) | Ki [14]: 5.01 µM (active) | pKi [15]: 5.6 | Ki [16]: 2.51 µM (active) | Ki [17]: > 7.94 µM (inactive) | Ki [18]: > 7.94 µM (inactive) | Ki [19]: 5.01 µM (active) | Ki [20]: > 5.01 µM (inactive) | Ki [21]: > 3.16 µM (inactive) | Ki [22]: 126 nM (active)
